Source: paper PMC12473123, “Structure–Function Insights into Quinuclidine-3-One BisQACs: Synthesis, Modulation of Bacterial Resistance, Structure–Activity Relationship, and Biological Profiling” (Pharmaceuticals, 2025)

How the values were obtained:
Format in all cases: cell-based
[1] = system: Bacillus cereus ATCC 14579; assay: Broth microdilution MIC; conditions: ATCC14579, read-out: Minimum Inhibitory Concentrations (MIC), Bacillus cereus ATCC 14579
[2] = system: Enterococcus faecalis ATCC 29212; assay: Broth microdilution MIC; conditions: Enterococcus faecalis, ATCC29212, read-out: Minimum Inhibitory Concentrations (MIC), Enterococcus faecalis ATCC 29212
[3] = system: Pseudomonas aeruginosa ATCC 27853; assay: Broth microdilution MIC; conditions: for MIC: Pseudomonas aeruginosa, ATCC27853, read-out: Minimum Inhibitory Concentrations (MIC)
[4] = system: Listeria monocytogenes ATCC 7644; assay: Time-resolved growth kinetics; conditions: MIC and ½ MIC
Description: The antimicrobial activity of the candidate compounds against Staphylococcus aureus ATCC 25923 and Listeria monocytogenes ATCC 7644 was further evaluated using a time-resolved growth kinetics assay in 96-well microtiter plates. Overnight bacterial cultures were diluted in fresh, pre-warmed Mueller–Hinton broth (MHB) and incubated at 37 °C with orbital shaking at 220 rpm. Upon reaching the exponential growth phase (OD600 = 0.3–0.5), cultures were standardized to a final concentration of 5 × 10^4 CFU/mL. Aliquots (50 µL) of the standardized inoculum were dispensed into wells containing either no antimicrobial agent (negative control) or the test compounds at concentrations corresponding to ½ MIC and MIC. Bacterial growth was continuously monitored over a 24 h period by measuring absorbance at 595 nm every 10 min using a Bio-Tek EL808 microplate reader (Winooski, VT, USA). Growth kinetics were assessed by comparing the optical density profiles of treated samples against the untreated control. Each experiment was performed independently twice, with all conditions tested in triplicate. Data are presented as the mean values of these replicates.

[5] = system: panel of clinically relevant bacterial strains; assay: Broth microdilution MIC, summary over the panel; conditions: Staphylococcus aureus (including MRSA), Listeria monocytogenes, Escherichia coli
[6] = system: Staphylococcus aureus ATCC 25923; assay: Flow cytometry cell viability (TO/PI staining); conditions: at the onset of treatment, concentration not given
Description: To gain further insights into the effects of the test compounds on bacterial viability, Staphylococcus aureus ATCC 25923 was analyzed using flow cytometry (NovoCyte Advanteon, Agilent Technologies, Santa Clara, CA, USA). Two independent overnight cultures were diluted 1:10 in fresh Mueller–Hinton broth (MHB) and incubated at 37 °C with shaking at 220 rpm until reaching the early exponential growth phase. Cells were then harvested by centrifugation (4500× g, 10 min, room temperature). One cell pellet was resuspended in a staining buffer composed of phosphate buffer (pH 7.4) supplemented with 1 mM EDTA and 0.1% Tween 20. […] Both preparations were adjusted to a final density of 1 × 10^6 CFU/mL and served as controls for fluorescence compensation alongside an unstained bacterial population. Bacterial viability was assessed using the BD^TM Cell Viability Kit (BD Biosciences, San Jose, CA, USA), which employs thiazole orange (TO) and propidium iodide (PI) for dual fluorescence labeling. […] Flow cytometric analysis enabled the discrimination of live (TO+/PI−), damaged (TO+/PI+), and dead (TO−/PI+) bacterial populations based on their fluorescence profiles, allowing for a time-resolved evaluation of compound-induced cytotoxicity.

Molecule `CCCCCCCCCCCCCCCCNC1C[N+]2(CCC[N+]34CCC(CC3)C(NCCCCCCCCCCCCCCCC)C4)CCC1CC2` (racemic) [2(QC16)3, (±)-1,1′-(Propane-1,3-diyl) bis(3-(hexadecylamino)quinuclidinium) dibromide] has an MIC [1] of over 75 µM, an MIC [2] of over 75 µM and an MIC [3] of over 75 µM. For the same molecule, the “effect on bacterial growth” value [4] was “pronounced inhibitory effect”.

In the case of `CCCCCCCCCCCCCCCCNC1C[N+]2(CCCCCC[N+]34CCC(CC3)C(NCCCCCCCCCCCCCCCC)C4)CCC1CC2` (racemic) [2(QC16)6, (±)-1,1′-(Hexane-1,6-diyl) bis(3-(hexadecylamino)quinuclidinium) dibromide], the “Minimum Inhibitory Concentrations (MIC)” value ([3]; Pseudomonas aeruginosa ATCC 27853) is reported as “largely inactive”, the MIC [3] is reported as over 75 µM and the MIC [5] is reported as 5 to 38 µM. For the same molecule, the “cells with signs of membrane damage (TO+/PI+)” value [6] was “over 80%”, the “fully viable cells (TO+/PI−)” value [6] was under 5% and the “effect on bacterial growth” value [4] was “pronounced inhibitory effect”.
